In PubChem BioAssay AID1963875 (Molecular Pharmacology Branch, DTP, NCI, 2024):

Tested on: KRAS-mutant PDC complex spheroid viability
Assay: Anticancer human tumor 186277-243-T-J2-PDC patient-derived colon adenocarcinoma cell line growth inhibition [KRAS2]
Settings: for IC50: curve of first compound; for viability, T/C: stronger effect = lower value
In short: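 Combination screen of spheroid viability in tumor-cell co-cultures with endothelial (HUVEC) and mesenchymal stem cell stroma. Each agent was tested in half-log dilutions, topping at clinical Cmax or at 10 microM without a known Cmax.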

[1] = second compound 0.1 µM, first compound 0.0316 µM
[2] = second compound 0.316 µM, first compound 0.0316 µM
[3] = second compound 1 µM, first compound 0.0316 µM
[4] = second compound 3.16 µM, first compound 0.0316 µM
[5] = second compound 10 µM, first compound 0.0316 µM
[6] = second compound 0.1 µM, first compound 0.1 µM
[7] = second compound 0.1 µM, first compound 0.316 µM
[8] = second compound 0.1 µM, first compound 1 µM
[9] = second compound 0.1 µM, first compound 3.16 µM
[10] = second compound 0.1 µM, first compound 10 µM
[11] = second compound 0.316 µM, first compound 0.1 µM
[12] = second compound 0.316 µM, first compound 0.316 µM
[13] = second compound 0.316 µM, first compound 1 µM
[14] = second compound 0.316 µM, first compound 3.16 µM
[15] = second compound 0.316 µM, first compound 10 µM
[16] = second compound 1 µM, first compound 0.1 µM
[17] = second compound 1 µM, first compound 0.316 µM
[18] = second compound 1 µM, first compound 1 µM
[19] = second compound 1 µM, first compound 3.16 µM
[20] = second compound 1 µM, first compound 10 µM
[21] = second compound 3.16 µM, first compound 0.1 µM
[22] = second compound 3.16 µM, first compound 0.316 µM
[23] = second compound 3.16 µM, first compound 1 µM
[24] = second compound 3.16 µM, first compound 3.16 µM
[25] = second compound 3.16 µM, first compound 10 µM
[26] = second compound 10 µM, first compound 0.1 µM
[27] = second compound 10 µM, first compound 0.316 µM
[28] = second compound 10 µM, first compound 1 µM
[29] = second compound 10 µM, first compound 3.16 µM
[30] = second compound 10 µM, first compound 10 µM
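Throughout, for viability, T/C: viability read after seven days of compound exposure; 100% = DMSO vehicle-treated spheroids so lower means less viable.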

`CC(=O)Nc1cccc(-n2c(=O)n(C3CC3)c(=O)c3c(Nc4ccc(I)cc4F)n(C)c(=O)c(C)c32)c1` + CNCc1ccccc1-c1csc(C(C)Nc2nc(C)nc3cc(OC)c(OC)cc23)c1 showed an IC50 (second compound 0.1 µM) of 0.00052 µM, an IC50 (second compound 0.316 µM) of 0.000302 µM and an IC50 (second compound 1 µM) of 0.000245 µM. The IC50 (second compound 3.16 µM) was less than 0.0001 µM, the IC50 (second compound 10 µM) was less than 0.0001 µM and the viability, T/C (second compound 0.1 µM, first compound 0.0001 µM) was 109%. For the same compound, the viability, T/C (second compound 0.1 µM, first compound 0.000316 µM) was 75.5%, the viability, T/C (second compound 0.1 µM, first compound 0.001 µM) was 16.4% and the viability, T/C (second compound 0.1 µM, first compound 0.00316 µM) was 4.46%. The viability, T/C (second compound 0.1 µM, first compound 0.01 µM) was 2.28%, the viability, T/C [1] was 1.31% and the viability, T/C (second compound 0.316 µM, first compound 0.0001 µM) was 103%. For the same compound, the viability, T/C (second compound 0.316 µM, first compound 0.000316 µM) was 47.9%, the viability, T/C (second compound 0.316 µM, first compound 0.001 µM) was 10.8% and the viability, T/C (second compound 0.316 µM, first compound 0.00316 µM) was 3.37%. For the same compound, the viability, T/C (second compound 0.316 µM, first compound 0.01 µM) was 1.77%, the viability, T/C [2] was 1.09% and the viability, T/C (second compound 1 µM, first compound 0.0001 µM) was 115%. The viability, T/C (second compound 1 µM, first compound 0.000316 µM) was 31.3%, the viability, T/C (second compound 1 µM, first compound 0.001 µM) was 6.94% and the viability, T/C (second compound 1 µM, first compound 0.00316 µM) was 1.83%. The viability, T/C (second compound 1 µM, first compound 0.01 µM) was 1.15%, the viability, T/C [3] was 0.51% and the viability, T/C (second compound 3.16 µM, first compound 0.0001 µM) was 40.6%. The viability, T/C (second compound 3.16 µM, first compound 0.000316 µM) was 0.37%, the viability, T/C (second compound 3.16 µM, first compound 0.001 µM) was 0.04% and the viability, T/C (second compound 3.16 µM, first compound 0.00316 µM) was 0.02%. For the same compound, the viability, T/C (second compound 3.16 µM, first compound 0.01 µM) was 0.02%, the viability, T/C [4] was 0.11% and the viability, T/C (second compound 10 µM, first compound 0.0001 µM) was 0.14%. The viability, T/C (second compound 10 µM, first compound 0.000316 µM) was 0.11%, the viability, T/C (second compound 10 µM, first compound 0.001 µM) was 0.1% and the viability, T/C (second compound 10 µM, first compound 0.00316 µM) was 0.1%. For the same compound, the viability, T/C (second compound 10 µM, first compound 0.01 µM) was 0.11% and the viability, T/C [5] was 0.18%.

`COC(=O)c1ccc2c(C(=Nc3ccc(N(C)C(=O)CN4CCN(C)CC4)cc3)c3ccccc3)c(O)[nH]c2c1` + CNCc1ccccc1-c1csc(C(C)Nc2nc(C)nc3cc(OC)c(OC)cc23)c1 was tested, and the IC50 (second compound 0.1 µM) was 1.84 µM, the IC50 (second compound 0.316 µM) was 1.14 µM and the IC50 (second compound 1 µM) was 0.727 µM. It also gave an IC50 (second compound 3.16 µM) of less than 0.0316 µM, an IC50 (second compound 10 µM) of less than 0.0316 µM and a viability, T/C [1] of 97.4%. The viability, T/C [6] was 94.1%, the viability, T/C [7] was 120% and the viability, T/C [8] was 92.6%. It also gave a viability, T/C [9] of 12.3%, a viability, T/C [10] of 6.55% and a viability, T/C [2] of 101%. It also gave a viability, T/C [11] of 102%, a viability, T/C [12] of 105% and a viability, T/C [13] of 56.5%. It also gave a viability, T/C [14] of 0.86%, a viability, T/C [15] of 1.8% and a viability, T/C [3] of 104%. For the same compound, the viability, T/C [16] was 109%, the viability, T/C [17] was 101% and the viability, T/C [18] was 30.5%. The viability, T/C [19] was 0.19%, the viability, T/C [20] was 0.16% and the viability, T/C [4] was 25.5%. The viability, T/C [21] was 20.5%, the viability, T/C [22] was 0.12% and the viability, T/C [23] was 0.06%. For the same compound, the viability, T/C [24] was 0.03%, the viability, T/C [25] was 0.1% and the viability, T/C [5] was 0.13%. It also gave a viability, T/C [26] of 0.12%, a viability, T/C [27] of 0.1% and a viability, T/C [28] of 0.08%. The viability, T/C [29] was 0.09% and the viability, T/C [30] was 0.14%.

Work on `COc1cc(Nc2ncc3c(n2)-c2ccc(Cl)cc2C(c2c(F)cccc2OC)=NC3)ccc1C(=O)O` + CNCc1ccccc1-c1csc(C(C)Nc2nc(C)nc3cc(OC)c(OC)cc23)c1 yielded an IC50 (second compound 0.1 µM) of less than 0.0316 µM, an IC50 (second compound 0.316 µM) of less than 0.0316 µM and an IC50 (second compound 1 µM) of less than 0.0316 µM. The IC50 (second compound 3.16 µM) was less than 0.0316 µM, the IC50 (second compound 10 µM) was less than 0.0316 µM and the viability, T/C [1] was 35.7%. For the same compound, the viability, T/C [6] was 32.4%, the viability, T/C [7] was 29.4% and the viability, T/C [8] was 34.1%. For the same compound, the viability, T/C [9] was 44.2%, the viability, T/C [10] was 43.8% and the viability, T/C [2] was 32.8%. The viability, T/C [11] was 27.8%, the viability, T/C [12] was 28.8% and the viability, T/C [13] was 29.7%. For the same compound, the viability, T/C [14] was 38.3%, the viability, T/C [15] was 40.8% and the viability, T/C [3] was 30.1%. It also gave a viability, T/C [16] of 31.6%, a viability, T/C [17] of 25.9% and a viability, T/C [18] of 30.7%. It also gave a viability, T/C [19] of 35%, a viability, T/C [20] of 35.9% and a viability, T/C [4] of 4.28%. It also gave a viability, T/C [21] of 5.85%, a viability, T/C [22] of 4.27% and a viability, T/C [23] of 3.03%. For the same compound, the viability, T/C [24] was 0.28%, the viability, T/C [25] was 0.7% and the viability, T/C [5] was 0.12%. The viability, T/C [26] was 0.11%, the viability, T/C [27] was 0.12% and the viability, T/C [28] was 0.15%. It also gave a viability, T/C [29] of 0.11% and a viability, T/C [30] of 0.19%.

`COc1cc2nccc(Oc3ccc(NC(=O)C4(C(=O)Nc5ccc(F)cc5)CC4)cc3)c2cc1OC` + CNCc1ccccc1-c1csc(C(C)Nc2nc(C)nc3cc(OC)c(OC)cc23)c1 gave an IC50 (second compound 0.1 µM) of 1.85 µM, an IC50 (second compound 0.316 µM) of 1.91 µM and an IC50 (second compound 1 µM) of 1.68 µM. It also gave an IC50 (second compound 3.16 µM) of less than 0.0316 µM, an IC50 (second compound 10 µM) of less than 0.0316 µM and a viability, T/C [1] of 112%. For the same compound, the viability, T/C [6] was 106%, the viability, T/C [7] was 115% and the viability, T/C [8] was 93.3%. It also gave a viability, T/C [9] of 11.4%, a viability, T/C [10] of 12.4% and a viability, T/C [2] of 113%. For the same compound, the viability, T/C [11] was 104%, the viability, T/C [12] was 113% and the viability, T/C [13] was 100%. For the same compound, the viability, T/C [14] was 10.8%, the viability, T/C [15] was 4.47% and the viability, T/C [3] was 102%. It also gave a viability, T/C [16] of 112%, a viability, T/C [17] of 121% and a viability, T/C [18] of 85.7%. For the same compound, the viability, T/C [19] was 6.86%, the viability, T/C [20] was 2.01% and the viability, T/C [4] was 45.5%. For the same compound, the viability, T/C [21] was 48%, the viability, T/C [22] was 26.6% and the viability, T/C [23] was 0.18%. For the same compound, the viability, T/C [24] was 0.06%, the viability, T/C [25] was 0.12% and the viability, T/C [5] was 0.16%. The viability, T/C [26] was 0.15%, the viability, T/C [27] was 0.13% and the viability, T/C [28] was 0.13%. For the same compound, the viability, T/C [29] was 0.13% and the viability, T/C [30] was 0.21%.
